Legend:
Type in all cases: in vivo
[1] = test system: PGE2 secreted by synoviocyte; assay: Content of PGE2 in culture supernatant of synoviocyte of RA model rats given test compound; settings: rat RA model, dose 30 mg/kg.2d, normal control 8.34 ± 1.29, NaCl 32.44 ± 10.32
Excerpt: (§1) Take Compound 1-50 prepared as per the method according to the present invention and employ the method provided in Reference to prepare model, group drugs and prepare culture supernatant of rat synoviocyte.
(§2) Employ the method provided in Reference to investigate the effects of the test compounds on the synoviocyte to secrete TNF-α and PGE2. Employ the method provided in Reference to investigate the effects of the test compounds on the synoviocyte to secrete IL-1β.
(§3) The experimental data of the test compound 1-50 at a dose of 30 mg/kg.2d as well as the normal control and NaCl group are as follows: […]

[2] = test system: IL-1β secreted by synoviocyte; assay: Content of IL-1β in culture supernatant of synoviocyte of RA model rats given test compound; settings: rat RA model, dose 30 mg/kg.2d, normal control 0.16 ± 0.034, NaCl 0.49 ± 0.136
Excerpt: as §1, §2, §3

[3] = test system: TNF-α secreted by synoviocyte; assay: Content of TNF-α in culture supernatant of synoviocyte of RA model rats given test compound; settings: rat RA model, dose 30 mg/kg.2d, normal control 0.38 ± 0.027, NaCl 0.74 ± 0.098
Excerpt: as §1, §2, §3

Structure (SMILES) | Content of PGE2 in culture supernatant of synoviocyte (x ± s) ([1]; 30 mg/kg) | Content of IL-1β in culture supernatant of synoviocyte (x ± s) ([2]; 30 mg/kg) | Content of TNF-α in culture supernatant of synoviocyte (x ± s) ([3]; 30 mg/kg) | Content of PGE2 in culture supernatant of synoviocyte (x ± s) [1] | Content of IL-1β in culture supernatant of synoviocyte (x ± s) [2] | Content of TNF-α in culture supernatant of synoviocyte (x ± s) [3]
CC1=C2CC[C@@](C)(O)[C@@H]2[C@H]2OC(=O)[C@@H](CN(C)C)[C@@H]2CC1 [Compound 22] | 24.69 ± 4.19 ng/mL | 0.34 ± 0.038 ng/mL | 0.61 ± 0.082 ng/mL |  |  | 
O=C1O[C@H]2[C@@H](CCC3(CC3)[C@@H]3CCC4(CC4)[C@H]23)[C@@H]1CSCc1ccccc1 [Compound 32] |  |  |  | 22.75 ± 4.25 ng/mL | 0.37 ± 0.047 ng/mL | 0.64 ± 0.044 ng/mL
C=C1C(=O)OC2C1CCC(C)=C1CCC(C)(OC(=O)CCC)C12 (stereo not drawn) [Compound 4] |  |  |  | 24.49 ± 2.67 ng/mL | 0.42 ± 0.064 ng/mL | 0.56 ± 0.064 ng/mL
C=C1C(=O)OC2C1CCC(C)=C1CCC(C)(OC(=O)CC)C12 (stereo not drawn) [Compound 3] |  |  |  | 26.96 ± 1.59 ng/mL | 0.36 ± 0.039 ng/mL | 0.55 ± 0.042 ng/mL
CN1CCN(CC2C(=O)O[C@@H]3[C@@H]4[C@@H](CCC45CC5)C4(CC[C@@H]23)CC4)CC1 (stereo partly drawn) [Compound 37] |  |  |  | 27.94 ± 2.69 ng/mL | 0.31 ± 0.037 ng/mL | 0.59 ± 0.035 ng/mL
C=C1C(=O)OC2C1CCC(C)=C1CCC(C)(OC(=O)CCCCBr)C12 (stereo not drawn) [Compound 12] |  |  |  | 24.59 ± 2.35 ng/mL | 0.38 ± 0.069 ng/mL | 0.66 ± 0.043 ng/mL
O=C1O[C@H]2[C@@H](CCC3(CC3)[C@@H]3CCC4(CC4)[C@H]23)[C@@H]1CN1CCCC1 [Compound 39] |  |  |  | 28.35 ± 2.15 ng/mL | 0.34 ± 0.095 ng/mL | 0.52 ± 0.056 ng/mL
C=C1C(=O)OC2C1CCC(C)=C1CCC(C)(OC(=O)CCl)C12 (stereo not drawn) [Compound 9] |  |  |  | 27.92 ± 2.67 ng/mL | 0.45 ± 0.064 ng/mL | 0.61 ± 0.065 ng/mL
C=C1C(=O)OC2C1CCC(C)=C1CCC(C)(OC(=O)C(C)C)C12 (stereo not drawn) [Compound 6] |  |  |  | 26.75 ± 1.69 ng/mL | 0.36 ± 0.054 ng/mL | 0.61 ± 0.072 ng/mL
C=C1C(=O)OC2C1CCC(C)=C1CCC(C)(OC(=O)C=Cc3ccccc3)C12 (stereo not drawn) [Compound 17] |  |  |  | 28.95 ± 3.24 ng/mL | 0.37 ± 0.065 ng/mL | 0.66 ± 0.077 ng/mL
C=C1C(=O)OC2C1CCC(C)=C1CCC(C)(OC(=O)CC(C)C)C12 (stereo not drawn) [Compound 7] |  |  |  | 22.82 ± 2.67 ng/mL | 0.39 ± 0.058 ng/mL | 0.56 ± 0.044 ng/mL
CC1CCN(C[C@@H]2C(=O)O[C@@H]3C4C(CCC45CC5)C4(CC[C@@H]23)CC4)CC1 (stereo partly drawn) [Compound 36] |  |  |  | 25.64 ± 2.14 ng/mL | 0.29 ± 0.064 ng/mL | 0.66 ± 0.045 ng/mL
O=C1O[C@H]2[C@@H](CCC3(CC3)[C@@H]3CCC4(CC4)[C@H]23)[C@@H]1Cn1cc(CCCCO)nn1 [Compound 42] |  |  |  | 22.58 ± 4.21 ng/mL | 0.36 ± 0.059 ng/mL | 0.58 ± 0.055 ng/mL
O=C1O[C@H]2[C@@H](CCC3(CC3)[C@@H]3CCC4(CC4)[C@H]23)[C@@H]1CNCCO [Compound 34] |  |  |  | 24.61 ± 3.24 ng/mL | 0.35 ± 0.059 ng/mL | 0.54 ± 0.067 ng/mL
CCCCN(C)C[C@@H]1C(=O)O[C@H]2[C@H]1CCC1(CC1)[C@@H]1CCC3(CC3)[C@H]21 [Compound 41] |  |  |  | 26.63 ± 1.59 ng/mL | 0.41 ± 0.054 ng/mL | 0.45 ± 0.056 ng/mL
C=C1C(=O)OC2C1CCC(C)=C1CCC(C)(OC(=O)CCc3ccccc3)C12 (stereo not drawn) [Compound 20] |  |  |  | 27.38 ± 1.39 ng/mL | 0.34 ± 0.056 ng/mL | 0.58 ± 0.045 ng/mL
C=C1C(=O)OC2C1CCC(C)=C1CCC(C)(OC(=O)C(Cl)Cl)C12 (stereo not drawn) [Compound 10] |  |  |  | 25.67 ± 7.12 ng/mL | 0.42 ± 0.069 ng/mL | 0.54 ± 0.055 ng/mL
C=C1C(=O)OC2C1CCC(C)=C1CCC(C)(OC(=O)C=CC)C12 (stereo not drawn) [Compound 15] |  |  |  | 24.39 ± 2.38 ng/mL | 0.41 ± 0.051 ng/mL | 0.54 ± 0.045 ng/mL
C#CCCCC(=O)O[C@]1(C)CCC2=C(C)CC[C@H]3C(=C)C(=O)O[C@@H]3[C@H]21 [Compound 19] |  |  |  | 26.45 ± 5.21 ng/mL | 0.42 ± 0.091 ng/mL | 0.62 ± 0.056 ng/mL

Reference: patent publication US10463644B2, “Uses of sesquiterpene lactone compounds and their derivatives in drugs preparation” (ACCENDATECH, priority 2013, dated 2019)
